Source: patent US10023601B2, “Hydrolysis resistant sialic acid derivatives and methods for their use” (The University of British Columbia, priority 2014, dated 2018)
Structures can show the parent of a compound that is named as a salt. Where two headings read alike, the source gives them in different places.

Tests used:
[1] = Spontaneous hydrolysis of CMP 7-modified sialic acids by 1H-NMR; assay type: physicochemical
Cst-I = Cst-I (Campylobacter jejuni, UniProt Q9RGF1)
Pm0188h = target: T1, Pm0188h (Pasteurella multocida, UniProt Q15KI8); assay: Sialyltransferase kinetics, CMP release assay, transfer to lactose by Pm0188h
T1 sequence (Q15KI8 26-412): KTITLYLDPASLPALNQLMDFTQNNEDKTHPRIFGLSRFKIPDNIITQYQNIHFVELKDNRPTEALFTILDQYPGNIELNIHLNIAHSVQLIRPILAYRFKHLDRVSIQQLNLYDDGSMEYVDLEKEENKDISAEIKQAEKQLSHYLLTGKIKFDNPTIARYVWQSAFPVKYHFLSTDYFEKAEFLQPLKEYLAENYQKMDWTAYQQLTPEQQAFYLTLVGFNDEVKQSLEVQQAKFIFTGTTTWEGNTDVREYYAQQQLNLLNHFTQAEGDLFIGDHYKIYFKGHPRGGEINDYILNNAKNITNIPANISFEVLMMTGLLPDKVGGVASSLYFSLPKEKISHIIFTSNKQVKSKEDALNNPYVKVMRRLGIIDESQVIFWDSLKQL

[2] = target: C. perfringens (GH33) sialidase (NanI) (Clostridium perfringens, UniProt A0A0H2YQR1); assay type: biochemical
Sequence of C. perfringens (GH33) sialidase (NanI) (A0A0H2YQR1 1-694): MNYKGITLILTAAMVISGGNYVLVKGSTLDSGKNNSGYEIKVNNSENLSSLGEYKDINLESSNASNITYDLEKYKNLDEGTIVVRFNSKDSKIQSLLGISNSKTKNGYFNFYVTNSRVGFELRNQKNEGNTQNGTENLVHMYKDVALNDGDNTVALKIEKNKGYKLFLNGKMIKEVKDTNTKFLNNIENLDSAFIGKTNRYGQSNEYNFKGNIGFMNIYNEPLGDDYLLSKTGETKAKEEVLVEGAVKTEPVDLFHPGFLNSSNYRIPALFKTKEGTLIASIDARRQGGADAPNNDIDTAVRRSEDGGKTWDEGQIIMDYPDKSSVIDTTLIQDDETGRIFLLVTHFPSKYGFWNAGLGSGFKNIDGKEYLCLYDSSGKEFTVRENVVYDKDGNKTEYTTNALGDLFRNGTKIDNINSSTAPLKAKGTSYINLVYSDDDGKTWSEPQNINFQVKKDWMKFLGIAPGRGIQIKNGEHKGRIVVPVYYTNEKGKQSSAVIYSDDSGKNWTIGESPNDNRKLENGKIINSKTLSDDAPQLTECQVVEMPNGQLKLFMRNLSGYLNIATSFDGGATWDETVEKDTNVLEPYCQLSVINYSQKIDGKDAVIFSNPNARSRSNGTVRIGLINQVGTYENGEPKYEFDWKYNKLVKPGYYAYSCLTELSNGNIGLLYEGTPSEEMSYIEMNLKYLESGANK

[3] = target: influenza neuraminidase N9 (GH34) (Influenza A virus, UniProt P03472); assay type: biochemical; settings: pH 5.9
Sequence of influenza neuraminidase N9 (GH34) (P03472 whole entry, looked up): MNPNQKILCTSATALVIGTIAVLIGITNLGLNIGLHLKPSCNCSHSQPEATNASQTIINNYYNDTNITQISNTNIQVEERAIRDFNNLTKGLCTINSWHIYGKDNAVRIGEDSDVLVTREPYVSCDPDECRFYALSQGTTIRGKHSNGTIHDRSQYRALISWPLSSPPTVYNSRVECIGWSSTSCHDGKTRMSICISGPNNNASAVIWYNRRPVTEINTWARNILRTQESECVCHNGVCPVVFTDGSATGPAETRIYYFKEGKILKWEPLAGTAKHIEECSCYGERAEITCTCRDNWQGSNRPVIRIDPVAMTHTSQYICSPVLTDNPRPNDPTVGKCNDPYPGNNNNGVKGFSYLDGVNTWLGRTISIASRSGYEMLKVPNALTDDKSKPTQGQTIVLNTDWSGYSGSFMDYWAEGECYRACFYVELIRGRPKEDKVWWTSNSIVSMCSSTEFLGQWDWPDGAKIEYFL

[4] = target: T2, T. rangeli (GH33) sialidase (TrSA) (Trypanosoma rangeli, UniProt O44049); assay: Sialidase kinetics, β-galactosidase coupled assay, T. rangeli sialidase
T2 sequence (O44049 23-660): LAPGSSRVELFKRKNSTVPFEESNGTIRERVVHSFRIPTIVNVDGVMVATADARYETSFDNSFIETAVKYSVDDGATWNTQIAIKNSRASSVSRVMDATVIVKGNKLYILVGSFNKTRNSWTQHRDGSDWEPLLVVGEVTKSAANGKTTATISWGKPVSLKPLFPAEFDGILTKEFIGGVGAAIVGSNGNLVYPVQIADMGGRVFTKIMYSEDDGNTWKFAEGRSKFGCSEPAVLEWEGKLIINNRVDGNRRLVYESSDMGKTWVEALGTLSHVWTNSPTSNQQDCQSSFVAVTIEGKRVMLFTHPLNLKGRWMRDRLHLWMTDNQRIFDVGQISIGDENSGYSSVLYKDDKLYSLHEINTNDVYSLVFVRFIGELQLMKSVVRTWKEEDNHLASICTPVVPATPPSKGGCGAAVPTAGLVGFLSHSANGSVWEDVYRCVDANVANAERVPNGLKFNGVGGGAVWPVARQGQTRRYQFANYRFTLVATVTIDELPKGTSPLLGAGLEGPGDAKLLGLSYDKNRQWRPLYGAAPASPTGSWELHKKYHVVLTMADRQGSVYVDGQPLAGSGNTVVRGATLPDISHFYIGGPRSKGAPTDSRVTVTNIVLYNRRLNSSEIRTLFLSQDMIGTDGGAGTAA

[5] = Spontaneous hydrolysis of 7-modified sialyl-galactose conjugates by 1H-NMR; assay type: physicochemical; settings: high salt, dilute acid (25 mM HCl)

Sequence of Cst-I (Q9RGF1 1-285 limits assumed): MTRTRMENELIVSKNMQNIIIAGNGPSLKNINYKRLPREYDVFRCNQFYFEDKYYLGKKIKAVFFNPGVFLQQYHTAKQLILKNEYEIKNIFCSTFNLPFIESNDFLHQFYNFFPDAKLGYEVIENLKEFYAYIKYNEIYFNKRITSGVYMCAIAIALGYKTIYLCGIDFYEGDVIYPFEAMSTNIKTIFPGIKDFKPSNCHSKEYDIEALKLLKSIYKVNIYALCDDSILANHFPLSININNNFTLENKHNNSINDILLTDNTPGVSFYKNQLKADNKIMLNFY

## CC(=O)N[C@H]1[C@H]([C@H](F)[C@H](O)CO)O[C@](OP(=O)(O)OC[C@H]2O[C@@H](n3ccc(N)nc3=O)[C@H](O)[C@@H]2O)(C(=O)O)C[C@@H]1O [compound 14, 5-Acetamido-3,5,7-trideoxy-2-(hydrogen 5′-cytidylate)-7-fluoro-D-glycero-b-D-galacto-2-nonulopyranosidic acid diammonium salt]
[1]
  krel: 0.33
[1]; pH 7.2
  Hydrolysis rate constant: 0.313 (±0.002) h^−1
Cst-I
  kcat (rel): 0.77
Pm0188h
  kcat (rel): 0.54

## CC(=O)N[C@H]1[C@H](C(F)(F)[C@H](O)CO)O[C@](OP(=O)(O)OC[C@H]2O[C@@H](n3ccc(N)nc3=O)[C@H](O)[C@@H]2O)(C(=O)O)C[C@@H]1O [compound 15, 5-Acetamido-3,5,7-trideoxy-2-(hydrogen 5′-cytidylate)-7,7-difluoro-D-glycero-b-D-galacto-2-nonulopyranosidic acid diammonium salt]
[1]
  krel: 0.01
[1]; pH 7.2
  Hydrolysis rate constant: 0.0084 (±0.0008) h^−1
Cst-I
  kcat (rel): 0.25
Pm0188h
  kcat (rel): 0.06

## CC(=O)N[C@H]1[C@H]([C@H](O)[C@H](O)CO)O[C@](OP(=O)(O)OC[C@H]2O[C@@H](n3ccc(N)nc3=O)[C@H](O)[C@@H]2O)(C(=O)O)C[C@@H]1O [compound 16, CMP-NeuNAc, reference compound]
[1]; spontaneous hydrolysis rate relative to CMP-NeuNAc
  krel: 1
[1]; spontaneous hydrolysis, high salt pH 7.2 buffer, 1H-NMR
  Hydrolysis rate constant: 0.94 (±0.01) h^−1
Cst-I
  kcat (rel): 1
Pm0188h
  kcat (rel): 1

## CC(=O)N[C@H]1[C@H]([C@H](O)[C@H](O)CO)O[C@@](O[C@H]2[C@@H](O)[C@@H](CO)O[C@@H](Oc3ccccc3[N+](=O)[O-])[C@@H]2O)(C(=O)O)C[C@@H]1O [compound 17, ortho-Nitrophenyl (5-Acetamido-3,5-dideoxy-D-glycero-α-D-galacto-non2-ulopyranosylonic acid)-(2→3)-β-D-galactopyranoside, reference compound]
[2]; pH 6.7
  Km: 800 µM
  kcat: 78 (±2) min^−1
[3]
  Km: 830 µM
  Vm: 17.5 (±0.5) μM min^−1
[4]; sialidase substrate, 30° C., pH 6.0
  kcat: 83 (±4) min^−1

## CC(=O)N[C@H]1[C@H]([C@H](F)[C@H](O)CO)O[C@@](O[C@H]2[C@@H](O)[C@@H](CO)O[C@@H](Oc3ccccc3[N+](=O)[O-])[C@@H]2O)(C(=O)O)C[C@@H]1O [compound 18, ortho-Nitrophenyl (5-Acetamido-3,5,7-trideoxy-7-fluoro-D-glycero-α-D-galacto-non2-ulopyranosylonic acid)-(2→3)-β-D-galactopyranoside]
[2]
  saturation of enzyme by substrate: Saturation was not achieved
[3]
  Km: 390 µM
  Vm: 4.6 (±0.2) μM min^−1
[4]
  saturation of enzyme by substrate: Saturation was not achieved

## CC(=O)NC1C(O)CC(OC2C(O)C(CO)OC(Oc3ccc4c(C)cc(=O)oc4c3)C2O)(C(=O)O)OC1C(O)C(O)CO [compound 19, 4-Methylumbelliferyl (5-acetamido-3,5-dideoxy-D-glycero-α-D-galacto-non2-ulopyranosylonic acid)-(2→3)-β-D-galactopyranoside, reference compound]
[5]
  spontaneous hydrolysis rate constant: 1.45 (±0.8) h-1

## CC(=O)NC1C(O)CC(OC2C(O)C(CO)OC(Oc3ccc4c(C)cc(=O)oc4c3)C2O)(C(=O)O)OC1C(F)C(O)CO [compound 20, 4-Methylumbelliferyl (5-acetamido-3,5,7-trideoxy-7-fluoro-D-glycero-α-D-galacto-non2-ulopyranosylonic acid)-(23)-β-D-galactopyranoside]
[5]
  spontaneous hydrolysis rate constant: 0.29 (±0.01) h-1
